Results as given in ChEMBL document CHEMBL3774345, “Synthesis of new diarylamides with pyrimidinyl pyridine scaffold and evaluation of their anti-proliferative effect on cancer cell lines” (Bioorg Med Chem Lett, 2016).

Columns and labels:
[1] = Cytotoxicity against human COLO205 cells assessed as cell growth at 10^-7 M after 24 hrs by SRB assay; format: functional; conditions: COLO 205, 24 h, read-out: Activity
[2] = Cytotoxicity against human UACC257 cells assessed as cell growth at 10^-4 M after 24 hrs by SRB assay; format: functional; conditions: UACC-257, 24 h, read-out: Activity
NCI-H522 = test: Cytotoxicity against human NCI-H522 cells after 24 hrs by SRB assay; format: functional, cell-based; conditions: NCI-H522, 24 h
[3] = Cytotoxicity against human COLO205 cells assessed as cell growth at 10^-8 M after 24 hrs by SRB assay; format: functional; conditions: COLO 205, 24 h, read-out: Activity
786-0 [4] = test: Cytotoxicity against human 786-0 cells assessed as cell growth at 10^-5 M after 24 hrs by SRB assay; format: functional; conditions: 786-0, 24 h, read-out: Activity
KM12 = test: Cytotoxicity against human KM12 cells assessed as cell growth at 10^-5 M after 24 hrs by SRB assay; format: functional; conditions: KM12, 24 h, read-out: Activity
786-0 [5] = test: Cytotoxicity against human 786-0 cells assessed as cell growth at 10^-6 M after 24 hrs by SRB assay; format: functional; conditions: 786-0, 24 h, read-out: Activity
CCRF-CEM = test: Cytotoxicity against human CCRF-CEM cells after 24 hrs by SRB assay; format: functional
[6] = Cytotoxicity against human RXF393 cells after 24 hrs by SRB assay; format: functional, cell-based; conditions: RXF 393, 24 h
SR = test: Cytotoxicity against human SR cells assessed as cell growth at 10^-8 M after 24 hrs by SRB assay; format: functional; conditions: read-out: Activity
K562 = test: Cytotoxicity against human K562 cells assessed as cell growth at 10^-5 M after 24 hrs by SRB assay; format: functional; conditions: K562, 24 h, read-out: Activity
[7] = Cytotoxicity against human HCT116 cells assessed as cell growth at 10^-7 M after 24 hrs by SRB assay; format: functional; conditions: HCT-116, 24 h, read-out: Activity
MDA-MB-231 = test: Cytotoxicity against human MDA-MB-231 cells assessed as cell growth at 10^-4 M after 24 hrs by SRB assay; format: functional; conditions: MDA-MB-231, 24 h, read-out: Activity
[8] = Cytotoxicity against human SF539 cells assessed as cell growth at 10^-7 M after 24 hrs by SRB assay; format: functional; conditions: SF-539, 24 h, read-out: Activity
[9] = Cytotoxicity against human BT549 cells assessed as cell growth at 10^-4 M after 24 hrs by SRB assay; format: functional; conditions: BT-549, 24 h, read-out: Activity
[10] = Cytotoxicity against human UO31 cells assessed as cell growth at 10^-4 M after 24 hrs by SRB assay; format: functional; conditions: UO-31, 24 h, read-out: Activity
NCI-H23 [11] = test: Cytotoxicity against human NCI-H23 cells assessed as cell growth at 10^-8 M after 24 hrs by SRB assay; format: functional; conditions: NCI-H23, 24 h, read-out: Activity
[12] = Cytotoxicity against human HL-60(TB) cells assessed as cell growth at 10^-7 M after 24 hrs by SRB assay; format: functional; conditions: HL-60, 24 h, read-out: Activity
[13] = Cytotoxicity against human UO31 cells after 24 hrs by SRB assay; format: functional, cell-based; conditions: UO-31, 24 h
[14] = Cytotoxicity against human SNB19 cells after 24 hrs by SRB assay; format: functional; conditions: SNB-19, 24 h
[15] = Cytotoxicity against human LOXIMVI cells assessed as cell growth at 10^-8 M after 24 hrs by SRB assay; format: functional; conditions: LOX IMVI, read-out: Activity
M14 [16] = test: Cytotoxicity against human M14 cells assessed as cell growth at 10^-8 M after 24 hrs by SRB assay; format: functional; conditions: M14, 24 h, read-out: Activity
NCI-H23 [17] = test: Cytotoxicity against human NCI-H23 cells assessed as cell growth at 10^-5 M after 24 hrs by SRB assay; format: functional; conditions: NCI-H23, 24 h, read-out: Activity
[18] = Cytotoxicity against human PC3 cells assessed as cell growth at 10^-4 M after 24 hrs by SRB assay; format: functional; conditions: PC-3, 24 h, read-out: Activity
U-251 = test: Cytotoxicity against human U251 cells assessed as cell growth at 10^-8 M after 24 hrs by SRB assay; format: functional; conditions: U-251, 24 h, read-out: Activity
M14 [19] = test: Cytotoxicity against human M14 cells assessed as cell growth at 10^-6 M after 24 hrs by SRB assay; format: functional; conditions: M14, 24 h, read-out: Activity
[20] = Cytotoxicity against human RPMI8226 cells after 24 hrs by SRB assay; format: functional; conditions: RPMI-8226, 24 h
SK-MEL-2 [21] = test: Cytotoxicity against human SK-MEL-2 cells after 24 hrs by SRB assay; format: functional; conditions: SK-MEL-2, 24 h
[22] = Cytotoxicity against human PC3 cells assessed as cell growth at 10^-6 M after 24 hrs by SRB assay; format: functional; conditions: PC-3, 24 h, read-out: Activity
NCI-H226 = test: Cytotoxicity against human NCI-H226 cells assessed as cell growth at 10^-7 M after 24 hrs by SRB assay; format: functional; conditions: NCI-H226, 24 h, read-out: Activity
[23] = Cytotoxicity against human SNB19 cells assessed as cell growth at 10^-8 M after 24 hrs by SRB assay; format: functional; conditions: SNB-19, 24 h, read-out: Activity
T47D = test: Cytotoxicity against human T47D cells assessed as cell growth at 10^-6 M after 24 hrs by SRB assay; format: functional; conditions: read-out: Activity
SK-MEL-2 [24] = test: Cytotoxicity against human SK-MEL-2 cells assessed as cell growth at 10^-7 M after 24 hrs by SRB assay; format: functional; conditions: SK-MEL-2, 24 h, read-out: Activity
[25] = read-out: LC50 (the source's name)
[26] = read-out: pLC50 (the source's name) (converted)

O=C(Nc1cc(-c2cccnc2)nc(NCCCN2CCOCC2)n1)c1cc(Br)cc(C(F)(F)F)c1
growth at 0.1 µM [1]: 93%
growth at 100 µM [2]: -93%
IC50 (NCI-H522): 1.95 µM
GI50 (NCI-H522; read-out: GI50): 1.95 µM
CC50 (NCI-H522; [25]): 23.3 µM
TGI (NCI-H522; read-out: TGI): 5.31 µM
GI50 (NCI-H522; read-out: pGI50 (converted)): 1.95 µM
CC50 (NCI-H522; [26]): 23.4 µM
TGI (NCI-H522; read-out: pTGI (converted)): 5.37 µM
growth at 0.01 µM [3]: 104%
growth at 10 µM (786-0 [4]): -80%
growth at 10 µM (KM12): 14%
growth at 1 µM (786-0 [5]): 81%
GI50 (CCRF-CEM; read-out: GI50): 3.54 µM
CC50 (CCRF-CEM; [25]): 93.4 µM
TGI (CCRF-CEM; read-out: TGI): 12.9 µM
GI50 (CCRF-CEM; read-out: pGI50 (converted)): 3.55 µM
CC50 (CCRF-CEM; [26]): 93.3 µM
TGI (CCRF-CEM; read-out: pTGI (converted)): 12.9 µM
IC50 [6]: 1.8 µM
GI50 ([6]; read-out: GI50): 1.8 µM
CC50 [6, 25]: 7.23 µM
TGI ([6]; read-out: TGI): 3.61 µM
GI50 ([6]; read-out: pGI50 (converted)): 1.82 µM
CC50 [6, 26]: 7.24 µM
TGI ([6]; read-out: pTGI (converted)): 3.63 µM
growth at 0.01 µM (SR): 106%
growth at 10 µM (K562): 4%
growth at 0.1 µM [7]: 107%
growth at 100 µM (MDA-MB-231): -84%
growth at 0.1 µM [8]: 87%
growth at 100 µM [9]: -86%
growth at 100 µM [10]: -90%
growth at 0.01 µM (NCI-H23 [11]): 98%
growth at 0.1 µM [12]: 96%
IC50 [13]: 1.4 µM
GI50 ([13]; read-out: GI50): 1.4 µM
CC50 [13, 25]: 8.19 µM
TGI ([13]; read-out: TGI): 3.39 µM
GI50 ([13]; read-out: pGI50 (converted)): 1.41 µM
CC50 [13, 26]: 8.13 µM
TGI ([13]; read-out: pTGI (converted)): 3.39 µM
GI50 ([14]; read-out: GI50): 2.5 µM
CC50 [14, 25]: 21.5 µM
TGI ([14]; read-out: TGI): 5.75 µM
GI50 ([14]; read-out: pGI50 (converted)): 2.51 µM
CC50 [14, 26]: 21.4 µM
TGI ([14]; read-out: pTGI (converted)): 5.75 µM
growth at 0.01 µM [15]: 93%
growth at 0.01 µM (M14 [16]): 94%
growth at 10 µM (NCI-H23 [17]): 18%
growth at 100 µM [18]: -93%
growth at 0.01 µM (U-251): 97%
growth at 1 µM (M14 [19]): 87%
GI50 ([20]; read-out: GI50): 3.15 µM
CC50 [20, 25]: > 100 µM
TGI ([20]; read-out: TGI): 9.69 µM
GI50 ([20]; read-out: pGI50 (converted)): 3.16 µM
CC50 [20, 26]: > 100 µM
TGI ([20]; read-out: pTGI (converted)): 9.77 µM
GI50 (SK-MEL-2 [21]; read-out: GI50): 4.52 µM
CC50 (SK-MEL-2 [21]; [25]): 45.8 µM
TGI (SK-MEL-2 [21]; read-out: TGI): 17 µM
GI50 (SK-MEL-2 [21]; read-out: pGI50 (converted)): 4.47 µM
CC50 (SK-MEL-2 [21]; [26]): 45.7 µM
TGI (SK-MEL-2 [21]; read-out: pTGI (converted)): 17 µM
growth at 1 µM [22]: 92%
growth at 0.1 µM (NCI-H226): 93%
growth at 0.01 µM [23]: 97%
growth at 1 µM (T47D): 88%
growth at 0.1 µM (SK-MEL-2 [24]): 95%
